Measurements: patent US20230265151A1, “GIP/GLP1 CO-AGONIST COMPOUNDS” (priority 2020, published 2023)
Read-outs that look alike come from different tables or passages of the source.

How the values were obtained:
Format in all cases: cell-based
hGIPR = biological target: T1, hGIPR (Homo sapiens, UniProt P48546); assay: Functional cAMP formation (HTRF) in HEK-293 clonal cells expressing hGIPR, 0.1% bovine casein, without or with 1.0% human serum albumin; conditions: for EC50: geometric mean, read-out: hGIPR EC50, nM (SEM, n); for Emax: read-out: hGIPR Emax, % ± SEM
T1 construct: expressed in transfected cells
T1 sequence (P48546 22-466): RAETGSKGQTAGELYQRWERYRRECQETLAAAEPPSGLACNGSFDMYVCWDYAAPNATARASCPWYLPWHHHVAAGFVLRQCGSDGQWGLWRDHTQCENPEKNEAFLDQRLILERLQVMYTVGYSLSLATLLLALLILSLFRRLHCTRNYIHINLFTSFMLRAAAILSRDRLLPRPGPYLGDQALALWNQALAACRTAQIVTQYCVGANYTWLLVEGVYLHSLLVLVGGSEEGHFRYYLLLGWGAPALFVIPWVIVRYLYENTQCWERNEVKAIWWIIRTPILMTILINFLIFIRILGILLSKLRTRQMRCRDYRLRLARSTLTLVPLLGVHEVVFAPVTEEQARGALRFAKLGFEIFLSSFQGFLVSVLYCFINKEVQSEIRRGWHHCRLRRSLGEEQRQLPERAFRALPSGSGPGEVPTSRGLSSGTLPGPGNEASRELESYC
Procedure, shortened: (§1)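 Cells were stimulated with peptide for 30 min at 37° C, then intracellular cAMP was measured by competitive HTRF (665/620 nm ratio) and converted to nM using a cAMP standard curve. Relative EC50 and Emax came from four-parameter logistic fits of percent maximal response against peptide concentration.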

hGCGR = biological target: T2, hGCGR (Homo sapiens, UniProt P47871); assay: Functional cAMP formation (HTRF) in HEK-293 clonal cells expressing hGCGR, 0.1% bovine casein, without or with 1.0% human serum albumin; conditions: geometric mean, read-out: hGCGR EC50, nM (SEM, n)
T2 construct: expressed in transfected cells
Procedure, shortened: as §1

hGLP-1R = hGLP-1R (Homo sapiens, UniProt P43220); assay: Functional cAMP formation (HTRF) in HEK-293 clonal cells expressing hGLP-1R, 0.1% bovine casein, without or with 1.0% human serum albumin; parameters: expressed in transfected cells; conditions: for EC50: geometric mean, read-out: hGLP-1R EC50, nM (SEM, n); for Emax: read-out: hGLP-1R Emax, % ± SEM
Procedure, shortened: as §1

[1] = 0.1% bovine casein and 1.0% human serum albumin, 37° C.
[2] = HEK293, 0.1% bovine casein and 1.0% human serum albumin, 37° C., percent of maximal response to GIP(1-42)NH2
[3] = HEK293, percent of maximal response to GIP(1-42)NH2, 37° C., 0.1% bovine casein, arithmetic mean
[4] = cAMP, incubated at 37° C., 0.1% bovine casein (no human serum albumin)
[5] = HEK293, 0.1% bovine casein and 1.0% human serum albumin, 37° C., percent of maximal response to GLP-1(7-36)NH2
[6] = HEK293, percent of maximal response to GLP-1(7-36)NH2, 37° C., 0.1% bovine casein, arithmetic mean

hGLP-1R, sequence (P43220 24-463): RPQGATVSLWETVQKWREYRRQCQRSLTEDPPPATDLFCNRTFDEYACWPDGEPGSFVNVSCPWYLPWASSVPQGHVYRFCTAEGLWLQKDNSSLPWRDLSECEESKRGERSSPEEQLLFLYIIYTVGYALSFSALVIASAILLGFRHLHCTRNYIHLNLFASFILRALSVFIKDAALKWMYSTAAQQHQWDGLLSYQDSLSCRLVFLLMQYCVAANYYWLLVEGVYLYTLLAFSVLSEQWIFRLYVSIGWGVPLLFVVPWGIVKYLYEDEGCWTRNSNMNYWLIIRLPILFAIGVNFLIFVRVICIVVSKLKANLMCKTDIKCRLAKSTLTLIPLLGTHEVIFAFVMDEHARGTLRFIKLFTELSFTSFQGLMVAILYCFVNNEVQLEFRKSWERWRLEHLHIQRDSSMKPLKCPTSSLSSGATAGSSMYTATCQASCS
T2 sequence (P47871 26-477): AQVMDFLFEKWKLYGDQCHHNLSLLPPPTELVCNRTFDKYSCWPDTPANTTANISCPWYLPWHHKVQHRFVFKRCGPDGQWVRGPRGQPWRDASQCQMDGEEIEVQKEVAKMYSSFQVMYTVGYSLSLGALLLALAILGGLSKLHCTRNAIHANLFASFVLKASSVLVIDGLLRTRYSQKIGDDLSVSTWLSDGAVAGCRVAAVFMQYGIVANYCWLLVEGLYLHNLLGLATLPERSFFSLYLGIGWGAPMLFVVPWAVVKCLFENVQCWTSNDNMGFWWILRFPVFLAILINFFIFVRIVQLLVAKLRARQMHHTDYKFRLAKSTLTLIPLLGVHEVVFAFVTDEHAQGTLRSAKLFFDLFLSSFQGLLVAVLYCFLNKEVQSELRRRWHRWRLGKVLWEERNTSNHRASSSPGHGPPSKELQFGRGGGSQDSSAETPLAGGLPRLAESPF

SMILES	EC50 (hGIPR; [1])	Emax (hGIPR; [2])	Emax (hGIPR; [3])	EC50 (hGIPR; [4])	EC50 (hGCGR; [1])	EC50 (hGCGR; [4])	EC50 (hGLP-1R; [1])	Emax (hGLP-1R; [5])	EC50 (hGLP-1R; [4])	Emax (hGLP-1R; [6])
CC[C@H](C)[C@H](NC(=O)[C@H](CC(C)C)NC(=O)[C@](C)(Cc1ccc(O)cc1)NC(=O)[C@@H](CCC(=O)O)NC(=O)[C@@H](NC(=O)[C@H](Cc1ccccc1)NC(=O)[C@H](CCC(=O)O)NC(=O)C(C)(C)NC(=O)[C@H](CCC(N)=O)NC(=O)[C@H](C)NC(=O)[C@H](CCCCNC(=O)COCCOCCNC(=O)[C@@H](N)CCCCNC(=O)CC[C@H](NC(=O)CCCCCCCCCCCCC(=O)O)C(=O)O)NC(=O)[C@H](CCCN)NC(=O)[C@H](CC(=O)O)NC(=O)[C@H](CC(C)C)NC(=O)[C@](C)(CC(C)C)NC(=O)[C@@H](NC(=O)[C@H](CO)NC(=O)[C@H](Cc1ccncc1)NC(=O)[C@H](CC(=O)O)NC(=O)[C@H](CO)NC(=O)[C@@H](NC(=O)[C@](C)(Cc1ccccc1F)NC(=O)[C@@H](NC(=O)CNC(=O)[C@H](CCC(=O)O)NC(=O)C(C)(C)NC(=O)[C@@H](N)Cc1ccc(O)cc1)[C@@H](C)O)[C@@H](C)O)[C@@H](C)CC)[C@@H](C)CC)C(=O)N[C@@H](CCC(=O)O)C(=O)NCC(=O)NCC(=O)N[C@@H](CCCCNC(=O)COCCOCCNC(=O)[C@@H](N)CCCCNC(=O)CC[C@H](NC(=O)CCCCCCCCCCCCC(=O)O)C(=O)O)C(=O)N[C@@H](CO)C(=O)N[C@@H](CO)C(=O)NCC(=O)N[C@@H](C)C(=O)N1CCC[C@H]1C(=O)N1CCC[C@H]1C(=O)N1CCC[C@H]1C(=O)N[C@@H](CO)C(N)=O [Example 35]	0.35 nM	91.7 ± 1.28%	97 ± 2.32%	0.0162 nM	> 9950 nM	> 9950 nM	16.4 nM			
CC[C@H](C)[C@H](NC(=O)[C@H](CC(C)C)NC(=O)[C@](C)(Cc1ccc(O)cc1)NC(=O)[C@@H](CCC(=O)O)NC(=O)[C@@H](NC(=O)[C@H](Cc1ccccc1)NC(=O)[C@H](CCC(=O)O)NC(=O)C(C)(C)NC(=O)[C@H](CCC(N)=O)NC(=O)[C@H](C)NC(=O)[C@H](CCCCNC(=O)[C@@H](N)CCCCNC(=O)CC[C@H](NC(=O)CCCCCCCCCCCCC(=O)O)C(=O)O)NC(=O)[C@H](CCCN)NC(=O)[C@H](CC(=O)O)NC(=O)[C@H](CC(C)C)NC(=O)[C@](C)(CC(C)C)NC(=O)[C@@H](NC(=O)[C@H](CO)NC(=O)[C@H](Cc1ccncc1)NC(=O)[C@H](CC(=O)O)NC(=O)[C@H](CO)NC(=O)[C@@H](NC(=O)[C@](C)(Cc1ccccc1F)NC(=O)[C@@H](NC(=O)CNC(=O)[C@H](CCC(=O)O)NC(=O)C(C)(C)NC(=O)[C@@H](N)Cc1ccc(O)cc1)[C@@H](C)O)[C@@H](C)O)[C@@H](C)CC)[C@@H](C)CC)C(=O)N[C@@H](CCC(=O)O)C(=O)NCC(=O)NCC(=O)N[C@@H](CCCCNC(=O)[C@@H](N)CCCCNC(=O)CC[C@H](NC(=O)CCCCCCCCCCCCC(=O)O)C(=O)O)C(=O)N[C@@H](CO)C(=O)N[C@@H](CO)C(=O)NCC(=O)N[C@@H](C)C(=O)N1CCC[C@H]1C(=O)N1CCC[C@H]1C(=O)N1CCC[C@H]1C(=O)N[C@@H](CO)C(N)=O [Example 38]	0.539 nM	88.8 ± 0.59%		0.0155 nM	> 9950 nM	> 9950 nM	12.5 nM	115 ± 2.53%	0.225 nM	
CC[C@H](C)[C@H](NC(=O)[C@H](CC(C)C)NC(=O)[C@](C)(Cc1ccc(O)cc1)NC(=O)[C@@H](CCC(=O)O)NC(=O)[C@@H](NC(=O)[C@H](Cc1ccccc1)NC(=O)[C@H](CCC(=O)O)NC(=O)C(C)(C)NC(=O)[C@H](CCC(N)=O)NC(=O)[C@H](C)NC(=O)[C@H](CCCCNC(=O)CC[C@H](NC(=O)COCCOCCNC(=O)CCCCCCCCCCCCC(=O)O)C(=O)O)NC(=O)[C@H](CCCN)NC(=O)[C@H](CC(=O)O)NC(=O)[C@H](CC(C)C)NC(=O)[C@](C)(CC(C)C)NC(=O)[C@@H](NC(=O)[C@H](CO)NC(=O)[C@H](Cc1ccncc1)NC(=O)[C@H](CC(=O)O)NC(=O)[C@H](CO)NC(=O)[C@@H](NC(=O)[C@](C)(Cc1ccccc1F)NC(=O)[C@@H](NC(=O)CNC(=O)[C@H](CCC(=O)O)NC(=O)C(C)(C)NC(=O)[C@@H](N)Cc1ccc(O)cc1)[C@@H](C)O)[C@@H](C)O)[C@@H](C)CC)[C@@H](C)CC)C(=O)N[C@@H](CCC(=O)O)C(=O)NCC(=O)NCC(=O)N[C@@H](CCCCNC(=O)CC[C@H](NC(=O)COCCOCCNC(=O)CCCCCCCCCCCCC(=O)O)C(=O)O)C(=O)N[C@@H](CO)C(=O)N[C@@H](CO)C(=O)NCC(=O)N[C@@H](C)C(=O)N1CCC[C@H]1C(=O)N1CCC[C@H]1C(=O)N1CCC[C@H]1C(=O)N[C@@H](CO)C(N)=O [Example 42]	1 nM	91.1 ± 0.67%	97.8 ± 7.18%	0.0103 nM	> 9950 nM	> 9950 nM	26.7 nM			
CC[C@H](C)[C@H](NC(=O)[C@H](CC(C)C)NC(=O)[C@](C)(Cc1ccc(O)cc1)NC(=O)[C@@H](CCC(=O)O)NC(=O)[C@@H](NC(=O)[C@](C)(Cc1ccccc1)NC(=O)[C@H](CCC(=O)O)NC(=O)C(C)(C)NC(=O)[C@H](CCC(N)=O)NC(=O)[C@H](C)NC(=O)[C@H](CCCCNC(=O)COCCOCCNC(=O)COCCOCCNC(=O)CC[C@H](NC(=O)CCCCCCCCCCCCC(=O)O)C(=O)O)NC(=O)[C@H](CCCN)NC(=O)[C@H](CC(=O)O)NC(=O)[C@H](CC(C)C)NC(=O)[C@](C)(CC(C)C)NC(=O)[C@@H](NC(=O)[C@H](CO)NC(=O)[C@H](Cc1ccncc1)NC(=O)[C@H](CC(=O)O)NC(=O)[C@H](CO)NC(=O)[C@@H](NC(=O)[C@](C)(Cc1ccccc1)NC(=O)[C@@H](NC(=O)CNC(=O)[C@H](CCC(=O)O)NC(=O)C(C)(C)NC(=O)[C@@H](N)Cc1ccc(O)cc1)[C@@H](C)O)[C@@H](C)O)[C@@H](C)CC)[C@@H](C)CC)C(=O)N[C@@H](CCC(=O)O)C(=O)NCC(=O)NCC(=O)N[C@@H](CCCCNC(=O)COCCOCCNC(=O)COCCOCCNC(=O)CC[C@H](NC(=O)CCCCCCCCCCCCC(=O)O)C(=O)O)C(=O)N[C@@H](CO)C(=O)N[C@@H](CO)C(=O)NCC(=O)N[C@@H](C)C(=O)N1CCC[C@H]1C(=O)N1CCC[C@H]1C(=O)N1CCC[C@H]1C(=O)N[C@@H](CO)C(N)=O [Example 47]		85.6%	89.8 ± 1.2%	0.0138 nM	> 9950 nM	> 9950 nM	1670 nM	134%		87.1 ± 14.1%
CC[C@H](C)[C@H](NC(=O)[C@H](CC(C)C)NC(=O)[C@](C)(Cc1ccc(O)cc1)NC(=O)[C@@H](CCC(=O)O)NC(=O)[C@@H](NC(=O)[C@H](Cc1ccccc1)NC(=O)[C@H](CCC(=O)O)NC(=O)C(C)(C)NC(=O)[C@H](CCC(N)=O)NC(=O)[C@H](C)NC(=O)[C@H](CCCCNC(=O)COCCOCCNC(=O)COCCOCCNC(=O)CC[C@H](NC(=O)CCCCCCCCCCCCC(=O)O)C(=O)O)NC(=O)[C@H](CCCN)NC(=O)[C@H](CC(=O)O)NC(=O)[C@H](CC(C)C)NC(=O)[C@](C)(CC(C)C)NC(=O)[C@@H](NC(=O)[C@H](CO)NC(=O)[C@](C)(CC(C)C)NC(=O)[C@H](CC(=O)O)NC(=O)[C@H](CO)NC(=O)[C@@H](NC(=O)[C@](C)(Cc1ccccc1F)NC(=O)[C@@H](NC(=O)CNC(=O)[C@H](CCC(=O)O)NC(=O)C(C)(C)NC(=O)[C@@H](N)Cc1ccc(O)cc1)[C@@H](C)O)[C@@H](C)O)[C@@H](C)CC)[C@@H](C)CC)C(=O)N[C@@H](CCC(=O)O)C(=O)NCC(=O)NCC(=O)N[C@@H](CCCCNC(=O)COCCOCCNC(=O)COCCOCCNC(=O)CC[C@H](NC(=O)CCCCCCCCCCCCC(=O)O)C(=O)O)C(=O)N[C@@H](CO)C(=O)N[C@@H](CO)C(=O)NCC(=O)N[C@@H](C)C(=O)N1CCC[C@H]1C(=O)N1CCC[C@H]1C(=O)N1CCC[C@H]1C(=O)N[C@@H](CO)C(N)=O [Example 51]		90.7%		0.11 nM	> 9950 nM	> 9950 nM		92.9%		85.7 ± 9.8%
